Laboratory results as given in patent US11884708B2, “Stapled peptide inhibitors of nemo as potential anti-inflammatory and anti-cancer drugs” (INSTITUT PASTEUR, priority 2015, dated 2024).
Where a SMILES comes first, the peptide text is derived from it. Bridges are numbered along the chain shown (N, C = ends). [ ]: non-standard residue; d: D form. The star is where a group is joined. Succinimide(1-Et,3-yl) = CCN1C(=O)CC(*)C1=O; R8 = C=CCCCCCC[C@@](C)(N)C(=O)O; S5 = C=CCCC[C@](C)(N)C(=O)O; code Z = not defined here; Cbz = O=C(OCc1ccccc1)*; CH2F = FC*

Tests used:
circular dichroism = conditions: 10 mM sodium phosphate; pH 7; 1 °C; 50 uM
70Z3-C3 cells = experiment: Cellular uptake of BODIPY-labeled peptides by FACS; type: cell-based; conditions: 2 h incubation, flow cytometry
[1] = test system: HLY1 (ABC-DLBCL, MALT1 independent); experiment: Cell death assay (CellTiter-Blue resazurin); type: cell-based, human; conditions: for cell death: HLY1, 7 h; for EC50: Homo sapiens
Experimental: (§1) The CellTiter-Blue® Cell Viability kit assay purchased from Promega was used to assess the cell death induced by NEMO stapled peptides in ABC- and GCB-DLBCL cell lines. […] Cells were considered 100% death when the fluorescence intensity value was the same as the one with the medium alone or with the cells treated with the cycloheximide protein synthesis inhibitor at 25 μM (Sigma Aldrich).
(§2) For each time point measurement 100 μl of cell samples were withdrawn at different incubation times (7 h, 24 h and 48 h) and subjected to resazurin assay for one hour at 37° C. in the CO2 incubator by adding and mixing for 10 sec 20 μl of resazurin. Fluorescence measurements were performed with a TECAN infinite F500 instrument at 560 nm excitation wavelength and 590 nm emission wavelength. Viability of cells at time 0 was determined just before adding compound and all experiments were performed in duplicate.
(§3) The percentage of cell death was calculated according to the following formula: (1−((RFUobs−blank)/(RFU100% viability−blank))*100), where RFUobs corresponds to the cells viability observed in the presence of compound, RFU100% viability, the initial cells viability and blank the background fluorescence measured using the medium alone.
(§4) The EC50 value was calculated by plotting the percentage of cell death as function of the compound concentration and fitting the experimental curve with the following formula: (A*P0)/(EC50+P0), where A is the amplitude of fluorescence, P0 is the peptide concentration.
(§5) To compare the inhibition efficiency of BA-UBI-SAHND306-Q313 with IKK inhibitors (MLN120B, MedChem Express) or IKKα/β inhibitor (TPCA1, R&D systems), 25,000 DLBCL cells (OCI-Ly3) were incubated for 7 h with an increasing concentration of IKK inhibitors ranging from 0 to 50 μM, and the amount of cell death was then determined using CellTiter-Blue® Cell Viability kit assay. For the MI-2 MALT1 inhibitor (Fontan et al., 2012, Cancer cell 22, 812-824), similar experiments were carried out in MALT dependent (OCI-Ly3) and independent (HLY1) DLBCL cells using a 0-25 μM range.

[2] = test system: OCI-Ly3 (ABC-DLBCL, MALT1 dependent); experiment: Cell death assay (CellTiter-Blue resazurin); type: cell-based, human
Experimental: as §1, §2, §3, §4, §5

OCI-Ly7 (GCB-DLBCL) = experiment: Cell death assay (CellTiter-Blue resazurin); type: cell-based, human; conditions: OCY-Ly7, no constitutive NF-κB activation
Experimental: as §1, §2
as §3, with “alone. […]” for “alone.”

OCI-Ly3 DLBCL cells = experiment: Protection from cell death induced by NEMO stapled inhibitor by apoptosis and necroptosis inhibitors; type: cell-based, human; conditions: OCY-Ly3 pre-treated with inhibitor, then A-UBI-SAHND306-Q313
Experimental: Ferrostatin-1, an inhibitor of ferroptosis (Sigma Aldrich) was used at 25 μM, the mixture of pepstatin-A and E64D (Sigma Aldrich), inhibitors of lysosomal cathepin D and cathepsin B, respectively, at 25 μM each and Cyclosporin A (Sigma Aldrich), a CypD inhibitor, at 25 μM. In all experiments, the effect of different DMSO concentration on cell viability was measured and taken into account, and fluorescence background was measured using cell free medium containing inhibitors.

IKKα = molecular target: T1, IKKα (Homo sapiens, UniProt O15111); conditions: reported; cited from earlier work
T1 sequence (O15111 1-745): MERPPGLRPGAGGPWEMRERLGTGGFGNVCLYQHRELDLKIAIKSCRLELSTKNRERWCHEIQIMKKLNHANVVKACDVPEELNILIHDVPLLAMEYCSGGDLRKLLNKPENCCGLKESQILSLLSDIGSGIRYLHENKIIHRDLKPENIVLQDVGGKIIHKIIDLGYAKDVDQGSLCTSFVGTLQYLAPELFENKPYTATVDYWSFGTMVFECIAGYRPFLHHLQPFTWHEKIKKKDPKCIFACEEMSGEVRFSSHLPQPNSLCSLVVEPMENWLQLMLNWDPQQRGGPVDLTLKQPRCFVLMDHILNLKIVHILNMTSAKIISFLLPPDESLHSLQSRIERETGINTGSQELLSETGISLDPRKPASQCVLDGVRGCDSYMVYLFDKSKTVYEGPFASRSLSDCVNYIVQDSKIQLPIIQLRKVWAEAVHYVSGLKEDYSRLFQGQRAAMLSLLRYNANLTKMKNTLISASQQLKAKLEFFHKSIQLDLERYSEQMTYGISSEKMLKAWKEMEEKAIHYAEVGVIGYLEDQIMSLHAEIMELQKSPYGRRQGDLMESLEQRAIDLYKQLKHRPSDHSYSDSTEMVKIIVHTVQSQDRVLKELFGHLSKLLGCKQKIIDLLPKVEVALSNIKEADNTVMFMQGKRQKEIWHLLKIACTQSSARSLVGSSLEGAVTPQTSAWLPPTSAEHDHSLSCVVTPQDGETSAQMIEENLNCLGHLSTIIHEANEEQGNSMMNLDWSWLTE

CCN1C(=O)CC(SC[C@H](NC(C)=O)C(=O)N[C@@H](CC(C)C)C(=O)N[C@@H](CCCCN)C(=O)N[C@@]2(C)CCCC=CCCC[C@@](C)(C(=O)N[C@@H](Cc3ccc(O)cc3)C(=O)N[C@@H](CCCCN)C(=O)N[C@@H](C)C(=O)N[C@@H](CCCNC(=N)N)C(=O)N[C@@H](Cc3ccccc3)C(=O)N[C@@H](CCC(N)=O)C(=O)N[C@@H](C)C(=O)N[C@@H](CCC(=O)O)C(=O)N[C@@H](CCCNC(=N)N)C(=O)N[C@@H](Cc3c[nH]cn3)C(=O)N[C@@H](C)C(=O)N[C@@H](CCCNC(=N)N)C(=O)N[C@@H](CCC(=O)O)C(=O)N[C@@H](CCCCN)C(N)=O)NC(=O)[C@H](CC(=O)O)NC(=O)[C@H](C)NC(=O)[C@H](CCC(N)=O)NC2=O)C1=O (some centres unmarked) (Ac-C(Succinimide(1-Et,3-yl))LK[S5]QAD[S5]YKARFQAERHAREK-NH2; staple 4-8)
helicity (circular dichroism): 70 rel %

CC[C@H](C)[C@H](NC(=O)[C@H](CCCCN)NC(=O)[C@@H](NC(=O)[C@H](CCC(N)=O)NC(=O)[C@H](CCCNC(=N)N)NC(=O)[C@H](CSC1CC(=O)N(CC)C1=O)NC(C)=O)[C@@H](C)CC)C(=O)N[C@@H](Cc1c[nH]c2ccccc12)C(=O)N[C@@H](Cc1ccccc1)C(=O)N[C@@H](CCC(N)=O)C(=O)N[C@@H](CC(N)=O)C(=O)N[C@@H](CCCNC(=N)N)C(=O)N[C@@H](CCCNC(=N)N)C(=O)N[C@@H](CCSC)C(=O)N[C@@H](CCCCN)C(=O)N[C@@H](Cc1c[nH]c2ccccc12)C(=O)N[C@@H](CCCCN)C(=O)N[C@@H](CCCCN)C(=O)N[C@@H](CC(C)C)C(=O)N[C@@H](CCCCN)C(=O)N[C@@H](C)C(=O)N[C@@H](CCC(N)=O)C(=O)N[C@@H](C)C(=O)N[C@]1(C)CCCCCCC=CCCC[C@@](C)(C(=O)N[C@@H](C)C(=O)N[C@@H](CCC(=O)O)C(=O)N[C@@H](CCCNC(=N)N)C(=O)N[C@@H](Cc2c[nH]cn2)C(=O)N[C@@H](C)C(=O)N[C@@H](CCCNC(=N)N)C(=O)N[C@@H](CCC(=O)O)C(=O)N[C@@H](CCCCN)C(N)=O)NC(=O)[C@H](Cc2ccccc2)NC(=O)[C@H](CCCNC(=N)N)NC(=O)[C@H](C)NC(=O)[C@H](CCCCN)NC(=O)[C@H](Cc2ccc(O)cc2)NC(=O)[C@H]([C@@H](C)CC)NC1=O (some centres unmarked) [A-UBI-SAHN D306-Q313] (Ac-C(Succinimide(1-Et,3-yl))RQIKIWFQNRRMKWKKLKAQA[R8]IYKARF[S5]AERHAREK-NH2; staple 23-30)
intracellular delivery at 4° C. lower than at 37° C. (70Z3-C3 cells): 58% | more potent than ML120B ([1]; HLY1): 70 × | cell death [1]: 100% | times more potent than ML120B IKKβ inhibitor ([2]; OCI-Ly3): about 50 times | EC50 ([2]; OCI-Ly3, 7 h): 2.6 ± 0.5 µM | cell death ([2]; OCI-Ly3, 7 h): 100% | cell death, in words (OCI-Ly7 (GCB-DLBCL)): no cell death

CC(C)S(=O)(=O)c1ccc2nccc(Nc3ccc4scnc4c3)c2c1 [GSK872]
protection to cell death induced by NEMO stapled inhibitor, in words (OCI-Ly3 DLBCL cells): significantly rescued

COCCOc1nc(-c2ccc(Cl)c(Cl)c2)n(-c2ccc(NC(=O)CCl)cc2)n1 [MI-2]
cell death [1]: more resistant | EC50 ([2]; OCI-Ly3, 7 h): 2.5 ± 0.05 µM

COc1c(Cl)cc2c([nH]c3cnccc32)c1NC(=O)c1cccnc1C [MLN120B]
cell death [1]: No cell death | EC50 ([1]; HLY1, 24 h): 70 ± 2 µM | EC50 ([1]; HLY1, 48 h): 78 ± 2 µM | EC50 ([2]; Homo sapiens, OCI-Ly3, 48 h): 125 ± 10 µM | cell death ([2]; OCI-Ly3, 48 h): 52%

COc1nccnc1NS(=O)(=O)c1ccc(NC(=O)/C=C/c2ccc([N+](=O)[O-])s2)cc1 [NSA, necrosulfonamide]
protection to cell death induced by NEMO stapled inhibitor, in words (OCI-Ly3 DLBCL cells): significantly rescued

CN1C(=O)C(Cc2c[nH]c3ccccc23)NC1=S (centres unmarked) [Nec1, necrostatin-1]
protection to cell death induced by NEMO stapled inhibitor, in words (OCI-Ly3 DLBCL cells): totally prevent

NC(=O)Nc1sc(-c2ccc(F)cc2)cc1C(N)=O [TPCA-1]
cell death ([2]; OCI-Ly3, 7 h): no significant additional effect | IC50 (IKKα): 0.4 µM

COC(=O)C[C@H](NC(=O)[C@H](C)NC(=O)[C@@H](NC(=O)OCc1ccccc1)C(C)C)C(=O)CF [Z-VAD-fmk] (Cbz-Val-Ala-Asp(OMe)-CH2F)
protection to cell death induced by NEMO stapled inhibitor, in words (OCI-Ly3 DLBCL cells): did not provide any protection

Z-Val-Arg-Pro-Arg-fluoromethylketone ({code Z}-VRPR-CH2F; reading uncertain; also: printed as Z-Val-Arg-Pro-Arg-fluoromethylketone) [Z-VRPR-fmk]
cell death, in words ([1]; HLY1, for at least 48 h): did not induce any cell death | cell death ([2]; OCI-Ly3, 48 h): very little cell death
